Our source for the inhibition values is patent US5220042A, “1,4-benzoquinone derivatives and benzene derivatives, and process for preparing the same” (priority 1984, dated 1993).

Where two headings read alike, the source gives them in different places. Bounds are passed on as bounds.

Holding throughout (type): cell-based, guinea pig (Hartley strain)
For one assay, the target named is T1, 5-lipoxygenase (Cavia porcellus, UniProt A0A286X958).
T1 construct: endogenous in cells; host or cells: guinea pig (Hartley strain) casein-elicited peritoneal exudate cells, intact cell suspension
T1 sequence (A0A286X958 1-674): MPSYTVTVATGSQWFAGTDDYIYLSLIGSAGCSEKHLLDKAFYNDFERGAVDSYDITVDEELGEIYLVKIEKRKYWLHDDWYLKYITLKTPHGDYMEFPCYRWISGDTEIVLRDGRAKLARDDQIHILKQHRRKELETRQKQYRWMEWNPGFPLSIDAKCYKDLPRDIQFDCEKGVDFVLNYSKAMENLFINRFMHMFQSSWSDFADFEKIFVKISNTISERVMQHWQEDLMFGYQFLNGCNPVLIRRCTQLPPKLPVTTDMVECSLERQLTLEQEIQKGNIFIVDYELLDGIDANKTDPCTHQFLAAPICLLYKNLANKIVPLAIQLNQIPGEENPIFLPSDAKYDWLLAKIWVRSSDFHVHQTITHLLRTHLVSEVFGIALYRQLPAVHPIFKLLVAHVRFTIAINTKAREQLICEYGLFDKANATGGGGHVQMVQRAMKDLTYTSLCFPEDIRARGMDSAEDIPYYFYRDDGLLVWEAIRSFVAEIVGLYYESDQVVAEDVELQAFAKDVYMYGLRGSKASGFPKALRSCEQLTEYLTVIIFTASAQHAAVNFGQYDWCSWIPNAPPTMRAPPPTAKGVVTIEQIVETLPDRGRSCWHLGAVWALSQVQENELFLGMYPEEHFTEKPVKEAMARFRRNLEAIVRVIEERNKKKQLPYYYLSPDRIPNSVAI
In words: 5-Lipoxygenase inhibitory activity (conversion of 14C-arachidonic acid to 5-HETE) in guinea pig peritoneal exudate cells. The settings on record: read-out: inhibition ratio (%) of 5-lipoxygenase activity; for inhibition at 3 µM: concentration 3 × 10^-6 M; for inhibition at 10 µM: concentration 10^-5 M; for inhibition at 1 µM: concentration 10^-6 M; for inhibition at 0.3 µM: concentration 3 × 10^-7 M; for inhibition at 0.1 µM: concentration 10^-7 M. As for the experimental part: 5-Lipoxygenase inhibitory activity of the present compounds was determined by a method according to procedures described in "J. Biol. Chem., Vol. 256, pages 4156-4159, (1981, Ibid. Vol. 258, pages 5754-5758 (1983).
(1) Preparation of Test Cells
A guinea pig (Hartley strain) (500-650 g body weight) was intraperitoneally administered with 2%-casein solution in 3/50 the volume of body weight. 14 Hours after the administration, the animal was sacrificed by bleeding and the peritoneal cavity was washed with Dulbecco's phosphate buffered saline (PBS) containing 3 U/ml of heparin and the exudate cells were harvested. The sample of cells was washed twice with Dulbecco's PBS (-), then the cells were suspended in Dulbecco's PBS (-), containing 1 mM of calcium chloride and 5.5 mM of glucose, so as to make a suspension having the concentration of 2.5×10^7 cells/ml.
To 0.2 ml of the above-mentioned cell suspension was added 10^-5 M of Indomethacine, and incubated at 30° C. for 2 minutes. Each of the appropriate concentrations of test compounds was added to the suspension respectively, further incubated for 2 minutes. Next, 10 μm of Ionophore A23187 (manufactured by Calbiochem-Behring, San Diego, Calif., U. S. A) was added to the suspension, further, 10 μm of ^14 C-arachidonic acid (manufactured by Amersham Japan, Ltd., Tokyo, Japan) was added and initiated the reaction. 3 Minutes after the initiation of the reaction, 0.1 ml of 0.2M-citric acid was added so as to terminate the reaction. 1.2 Milliliters of ethyl acetate was added to the reaction mixture and shaked for 5 minutes. The reaction mixture was centrifuged at 3,000 rpm for 5 minutes so as to separate the organic layer from the aqueous layer. 1 Milliliter of the organic layer (the upper layer) was dehydrated by passing through a mini-column packed with anhydrous sodium sulfate. The dehydrated organic layer was dried under nitrogen gas stream. The residue obtained was dissolved in ethyl acetate, and the total amount of the ethyl acetate solution was spotted onto thin layer chromochromatography (TCL) plate (Art. 11845 manufactured by E. Merck A. G.). The TCL was carried out with a mixed solvent of diethyl ether:petroleum:ether:acetic acid (50:50:1 volume/volume), then the radioactive metabolites on the plate were detected by using "Ultrafilm ^3 H" (a trademark for a X-ray film, manufactured by LKB Co.). Each fractions corresponding to the metabolites was scraped in to a scintillation vial, and 5 ml of "Scintilator ACS-II" (manufactured by Amersham Japan, Ltd.), was added then the radio-activity was determined by means of a liquid scintillation counter.

For assay [1], the system named is SRS-A release from lung fragments. Kind of assay: Inhibition of SRS-A release from sensitized guinea pig lung fragments. The settings on record: Cavia porcellus. As for the experimental part:
(§1) Inhibitory activities on the release of SRS-A and histamine of the present compounds were determined.
(§2) A male guinea pig (Hartley strain) (body weight: about 300 g) was sensitized by a method according to P. Anderson: "Int. Archs. Allergey appln. Immunol., Vol. 64, pages 249-258 (1981). Thus, 30 mg/kg of cyclophosphamide was intraperitoneally administered to the guinea pig, and 2 days after 1 microgram of ovalbumin (manufactured by Sigma Chemical Co., St. Louis, Mo. U. S. A.) together with 10 mg of aluminium hydroxide gel were intraperitoneally administered so as to have the animal sesitized.
(§3) 50 Days after the sesitization, the animal was killed by exsanguination, and the lung was isolated from the animal and was perfused with 20 ml of Tyrode's solution, then immersed in an ice-cooled Tyrode's solution. The parenchyma of the lung was cut by using McIlwain-type tissue chopper to make it into fragments of lung having 2 mm square and the fragments were washed with Tyrode's solution. 400 Milligrams of sectiles of lung were suspended in 3.6 ml of Tyrode's solution, and this suspension was preincubated at 37° C. for 5 minutes, then 4 microliters of dimethyl sulfoxide solution of the test compound, in the case of control 4 microliters of dimethyl sulfoxide alone was added to the suspension. 5 Minutes after, 0.4 ml of 100 micrograms/ml of ovalbumin solution added so as to release SRS-A for 10 minutes. The suspension was ice-cooled and filtered through gauze, the filtrate was centrifuged at 2,000 rpm for 10 minutes and the supernatant was collected. The supernatant was stored in freezed state at -80° C. until bio-assay was conducted.
(§4) Amounts of SRS-A and histamine contained in the supernatant were determined by bio-assay using ileum of guinea pig.
(§5) A piece of the ileum (2-3 cm of length) positioned from 15-25 cm from the opening portion of ileocecum was isolated from a male guinea pig (Hartley strain) (body weight: 400-600 g) which was fasted for 24 hours. The piece of ileum was hanged vertically in a Magnus tube which was filled with 10 ml of Tyrode's solution containing 10^-7 M of atropine sulfate under air stream conditions. The isotonic contraction of the piece of the ileum was measured at 0.5 g of load by using an isotonic transducer "TD-112S" (manufactured by Nihon Koden Co., Ltd.). The measurements were carried out after the reaction to histamine of the piece of ileum was kept constant. Bioassay of histamine was measured by using the value of contraction shown in 30 seconds after the addition of the supernatant. Bioassay of on SRS-A was measured by using the value of contraction shown at 2 minutes after the addition of the supernatant in the presence of 10^-6 M of pyrilamine (manufactured by Sigma Chemical Co.), and compared with the standard curve of crude SRS-A released from the fragments of the lung.

Assay [2] relates to histamine release from lung fragments. Kind of assay: Inhibition of histamine release from sensitized guinea pig lung fragments. Conditions: Cavia porcellus, read-out: Inhibition ratio (%) Histamine; for inhibition at 3 µM: Table 2, dose 3 μM; for inhibition at 30 µM: Table 2, dose 30 μM. As for the experimental part: as §1, §2, §3, §4, §5
Where [3] appears, read: Table 2, dose 3 μM, read-out: Inhibition ratio (%) SRS-A.
[4] abbreviates: Table 2, dose 30 μM, read-out: Inhibition ratio (%) SRS-A.
Where [5] appears, read: Table 2B, 3 μM, read-out: Inhibitory activities on SRS-A (%).
[6] abbreviates: Table 2B, 30 μM, read-out: Inhibitory activities on SRS-A (%).

Turning to `CCCCCCCCCCCCCC1=C(OC)C(=O)C=C(OC)C1=O` [Test Compound No. 8, 2,5-Dimethoxy-3-tridecanyl-1,4-benzoquinone], on 5-lipoxygenase, the inhibition at 3 µM was 40%, the inhibition at 10 µM is 74% and the inhibition at 1 µM amounted to 12%.

On to `COC1=CC(=O)C(OC)=C(CCCCCCC2=C(OC)C(=O)C=C(OC)C2=O)C1=O` [Test Compound No. 10, 2,2'-Hexamethylenebis(3,6-dimethoxy-1,4-benzoquinone)], for which, on 5-lipoxygenase, the inhibition at 0.3 µM worked out at 58%, the inhibition at 1 µM was 81% and the inhibition at 0.1 µM was determined as 17%. Also, in assay [1] (setting [3]), the inhibition at 3 µM is 73.4%. Further, in assay [1] (setting [4]), the inhibition at 30 µM is more than 95.2%. Also, in assay [2], the inhibition at 3 µM was 20.6% and the inhibition at 30 µM was 22.4%.

For `COC1=CC(=O)C(OC)=C(CCCCCCCC2=C(OC)C(=O)C=C(OC)C2=O)C1=O` [Test Compound No. 11, 2,2'-Heptamethylenebis(3,6-dimethoxy-1,4-benzoquinone)], at 5-lipoxygenase, the inhibition at 0.3 µM came out at 64%. The inhibition at 1 µM at 5-lipoxygenase came out at 88%. Further, the inhibition at 0.1 µM at 5-lipoxygenase was 44%. Besides, the results for the inhibition at 3 µM in assay [1] (setting [3]), in assay [1] (setting [5]) and in assay [2] were 32.5%, 32.5% and -8.4%, respectively. In addition, the figures for the inhibition at 30 µM in assay [1] (setting [4]), in assay [1] (setting [6]) and in assay [2] were 85.7%, 85.7% and -3.6%, respectively.

For the compound `COC1=CC(=O)C(OC)=C(CCCCCCCCC2=C(OC)C(=O)C=C(OC)C2=O)C1=O` [Test Compound No. 12, 2,2'-Octamethylenebis(3,6-dimethoxy-1,4-benzoquinone)], at 5-lipoxygenase, the inhibition at 0.3 µM amounted to 72%, the inhibition at 1 µM is 87% and the inhibition at 0.1 µM was determined as 36%. For the same compound, in assay [1] (setting [3]), the inhibition at 3 µM came out at 26.9%. For the same compound, in assay [1] (setting [4]), the inhibition at 30 µM came to 71.7%. In assay [2], the inhibition at 3 µM was determined as 2.4% and the inhibition at 30 µM was -2.2%.

`COC1=C(C)C(=O)C(OC)=C(CCCCCC2=C(OC)C(=O)C(C)=C(OC)C2=O)C1=O` [Test Compound No. 17, 2,2'-Pentamethylenebis(3,6-dimethoxy-5-methyl-1,4-benzoquinone)]: at 5-lipoxygenase, the inhibition at 0.3 µM stood at 79%, the inhibition at 1 µM was found to be 89% and the inhibition at 0.1 µM was found to be 13%. In addition, the inhibition at 3 µM in assay [1] (setting [3]) was determined as 56.3%. Moreover, the inhibition at 30 µM in assay [1] (setting [4]) was found to be 83.9%.

Take `COC1=C(CCO)C(=O)C(OC)=C(CCCCCC2=C(OC)C(=O)C(CCO)=C(OC)C2=O)C1=O` [Test Compound No. 19, 5,5'-Pentamethylenebis[2-(2-hydroxyethyl)-3,6-dimethoxy-1,4-benzoquinone]]: on 5-lipoxygenase, the inhibition at 0.3 µM worked out at 74%, the inhibition at 1 µM was 87% and the inhibition at 0.1 µM came to 48%. Besides, in assay [1] (setting [3]), the inhibition at 3 µM came out at 40.6%. Moreover, the inhibition at 30 µM in assay [1] (setting [4]) was found to be 76.6%. Moreover, the inhibition at 3 µM in assay [1] (setting [5]) worked out at 40.6%. In addition, the inhibition at 30 µM in assay [1] (setting [6]) turned out to be 76.6%.

Turning to `CCCCC#CCCCCCCCCCC1=C(OC)C(=O)C=C(OC)C1=O` [Test Compound No. 32, 2,5-Dimethoxy-3-(10-pentadecynyl)-1,4-benzoquinone], at 5-lipoxygenase, the inhibition at 3 µM came to 80%, the inhibition at 0.3 µM was determined as 36%, the inhibition at 10 µM was 87% and the inhibition at 1 µM was determined as 56%. Moreover, the inhibition at 3 µM in assay [1] (setting [5]) stood at 12.4%. The inhibition at 30 µM in assay [1] (setting [6]) is 26%.

`CCCC/C=C\CCCCCC1=C(OC)C(=O)C=C(OC)C1=O` [Test Compound No. 33, 2,5-Dimethoxy-3-(Z-6-undecenyl)-1,4-benzoquinone]: at 5-lipoxygenase, the inhibition at 3 µM turned out to be 91%, the inhibition at 0.3 µM came to 51%, the inhibition at 10 µM was 89% and the inhibition at 1 µM came out at 87%. In assay [1] (setting [5]), the inhibition at 3 µM worked out at 19.6%. Further, the inhibition at 30 µM in assay [1] (setting [6]) was 33.4%.

Turning to `CCCC/C=C\CCCCCCCC1=C(OC)C(=O)C=C(OC)C1=O` [Test Compound No. 34, 2,5-Dimethoxy-3-(Z-8-tridecenyl)-1,4-benzoquinone], at 5-lipoxygenase, the inhibition at 3 µM was 73%, the inhibition at 0.3 µM amounted to 26%, the inhibition at 10 µM was determined as 89% and the inhibition at 1 µM came out at 37%. Further, the inhibition at 3 µM in assay [1] (setting [5]) turned out to be 3.2%. Besides, the inhibition at 30 µM in assay [1] (setting [6]) was determined as 0.8%.

With `CCCCC#CCCCCCC1=C(OC)C(=O)C=C(OC)C1=O` [compound 30], on 5-lipoxygenase, the inhibition at 3 µM was 92%, the inhibition at 0.3 µM stood at 39%, the inhibition at 10 µM turned out to be 91% and the inhibition at 1 µM was 75%. Further, the inhibition at 3 µM in assay [1] (setting [5]) was 23.8%. For the same compound, the inhibition at 30 µM in assay [1] (setting [6]) worked out at 73.4%.

For the compound `CCCCC#CCCCCCCCC1=C(OC)C(=O)C=C(OC)C1=O` [compound 31], on 5-lipoxygenase, the inhibition at 3 µM stood at 91%, the inhibition at 0.3 µM was 43%, the inhibition at 10 µM stood at 93% and the inhibition at 1 µM came out at 73%. Moreover, the inhibition at 3 µM in assay [1] (setting [5]) amounted to 17%. Moreover, the inhibition at 30 µM in assay [1] (setting [6]) is 37.7%.
